Patent US11957783B2, “Topical immunosensitizers to treat viral and fungal infections” (Squarex, LLC, priority 2018, dated 2024)

How the values were obtained:
[1] = system: Interleukin 2; experiment: Plasma level of Interleukin 2; format: in vivo, human; settings: for Interleukin 2 in plasma, group average / Interleukin 2 in plasma, number of subjects with undetectable levels: n = 12
Protocol: After a screening visit at which blood was drawn to test for IgG antibody against HSV-1 and subjects were interviewed for inclusion/exclusion criteria, selected subjects returned for blood draws on day 1. After the blood draw on day 1, subjects in group A only were dosed with SADBE. A petrolatum donut was applied with a cotton swab to form about a 1 cm diameter donut on skin on the inner aspect of the upper arm. Then a separate cotton swab was dipped in a 2% SADBE solution (w/v) in DMSO, and the swab was then used to apply about 10-20 mg of solution over about a 1 cm diameter circle within the petrolatum donut. Immediately after application, the application site was covered with TEGADERM. Subjects were advised to remove the TEGADERM and rinse and wipe the spot three hours later. The group A subjects then returned for blood draws on days 15 and 57 and were queried about adverse events on those dates.
At this study visit where blood was drawn it was tested for blood cell counts, various cytokine levels, and anti-HSV-1 IgG quantitative levels.
All subjects had detectable IL-2 and the large majority had detectable IL-2 receptor.

[2] = Rash (erythema) from the sensitization dose (Example 2); format: in vivo, human; settings: pooled treatment groups B and C; placebo 2 of 13
Source text: Visit 1: Upon entering the study, patients are sensitized to squaric acid dibutyl ester (SADBE) by dipping a cotton-tipped swab in a 2% solution of SADBE in DMSO and swabbing a 1 cm^2 area on the forearm. Participants are told then to wait at least 2 weeks for their first treatment.

SMILES: CCCCOc1c(OCCCC)c(=O)c1=O [SADBE, 3,4-Dibutoxy-3-cyclobutene-1,2-dione]
- Interleukin 2 in plasma, Sample/A1 ([1]; A15 / group A day 1): 0.96
- Interleukin 2 in plasma, Sample minus A1 ([1]; A15 minus group A day 1): -0.54 pg/mL
- Interleukin 2 in plasma, Sample/A1 ([1]; A57 / group A day 1): 0.84
- Interleukin 2 in plasma, Sample minus A1 ([1]; A57 minus group A day 1): -2.13 pg/mL
- Interleukin 2 in plasma, group average ([1]; group A day 15 (A15)): 12.90 pg/mL
- Interleukin 2 in plasma, number of subjects with undetectable levels ([1]; group A day 15 (A15)): 0
- Interleukin 2 in plasma, group average ([1]; group A day 57 (A57)): 11.30 pg/mL
- Interleukin 2 in plasma, number of subjects with undetectable levels ([1]; group A day 57 (A57)): 0
- subjects with rash (erythema) from the sensitization dose [2]: 17 of 28
